Reference: ChEMBL document CHEMBL1201862, “PubChem BioAssay data set” (2004)
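Cells were grown in 96-well plates and exposed to each compound for 48 hours at five concentrations; endpoints were interpolated linearly between bracketing concentrations, or set to the highest concentration if not reached. The concentration for 50% growth inhibition is given as GI50.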 Active and inactive are the calls of the source. Cut-off read from the data, not from the text of the source: active = GI50 up to about 1.1 µM and inactive = higher.

Legend:
Experiment in all cases: NCI tumour cell line growth inhibition, 48 h
PC-3 = system: PC-3
TK-10 = system: TK-10
ACHN = system: ACHN
HCT-116 = system: HCT-116
OVCAR-3 = system: OVCAR-3
Malme-3M = system: Malme-3M
RXF 393 = system: RXF 393
SW-620 = system: SW-620
HOP-62 = system: HOP-62
NCI-H23 = system: NCI-H23
LOX IMVI = system: LOX IMVI
RPMI-8226 = system: RPMI-8226
MOLT-4 = system: MOLT-4
HOP-92 = system: HOP-92
SN12C = system: SN12C
UACC-257 = system: UACC-257
Hs-578T = system: Hs-578T
MCF7 = system: MCF7
UO-31 = system: UO-31

Measured: GI50

O=C(O)CCN(CCC(=O)O)c1ccc(/C=C2\SC(=S)NC2=O)cc1
inactive: PC-3 > 100 µM | TK-10 > 100 µM | ACHN > 100 µM | HCT-116 > 100 µM | OVCAR-3 > 100 µM | Malme-3M 1.48 µM | RXF 393 > 100 µM | SW-620 > 100 µM | HOP-62 > 100 µM | NCI-H23 > 100 µM | LOX IMVI > 100 µM | RPMI-8226 > 100 µM | MOLT-4 > 100 µM | HOP-92 > 100 µM | SN12C > 100 µM | UACC-257 > 100 µM | Hs-578T > 100 µM | MCF7 > 100 µM | UO-31 > 100 µM

COC(=O)[C@H](C)NC(=O)C1(CNC(=O)[C@H](C)NC(=O)OC(C)(C)C)Cc2ccccc2-c2ccccc2C1
inactive: PC-3 23.8 µM | TK-10 27 µM | ACHN 22.8 µM | HCT-116 33.8 µM | OVCAR-3 17.5 µM | Malme-3M 19.1 µM | RXF 393 25.5 µM | SW-620 26.2 µM | HOP-62 27 µM | NCI-H23 18 µM | LOX IMVI 3.85 µM | RPMI-8226 7.59 µM | MOLT-4 16.7 µM | HOP-92 5.51 µM | SN12C 17.7 µM | UACC-257 > 48.2 µM | Hs-578T > 37.2 µM | MCF7 37.5 µM | UO-31 4.67 µM

C[C@@H]1[C@@H](C)C(c2ccccc2)O[Si]1(C(C)(C)C)C(C)(C)C (stereo not given in full)
inactive: PC-3 17.1 µM | TK-10 16.4 µM | ACHN 17.7 µM | HCT-116 15.5 µM | OVCAR-3 16.5 µM | Malme-3M 9.71 µM | RXF 393 17.1 µM | SW-620 18.8 µM | HOP-62 17.5 µM | NCI-H23 15.6 µM | LOX IMVI 16.9 µM | RPMI-8226 20.6 µM | MOLT-4 16 µM | HOP-92 21.5 µM | SN12C 17.4 µM | UACC-257 17.1 µM | Hs-578T 20.9 µM | MCF7 18.1 µM | UO-31 17.2 µM

CC(C)C[S+]1C2=C(CC(C)(C)CC2=O)[N-]c2ccccc21 (stereo not given)
inactive: PC-3 > 100 µM | TK-10 > 100 µM | ACHN > 100 µM | HCT-116 > 100 µM | OVCAR-3 > 100 µM | Malme-3M > 100 µM | RXF 393 > 100 µM | SW-620 > 100 µM | HOP-62 > 100 µM | NCI-H23 > 100 µM | LOX IMVI > 100 µM | RPMI-8226 > 100 µM | MOLT-4 67.8 µM | HOP-92 > 100 µM | SN12C > 100 µM | UACC-257 > 100 µM | Hs-578T > 100 µM | MCF7 > 100 µM | UO-31 > 100 µM

Oc1ccc(SCc2cc(O)ccc2O)cc1
inactive: PC-3 6.1 µM | TK-10 18.4 µM | ACHN 13.7 µM | HCT-116 11.2 µM | OVCAR-3 7.69 µM | Malme-3M 19.5 µM | RXF 393 11.9 µM | SW-620 19.1 µM | HOP-62 14.8 µM | NCI-H23 28.5 µM | LOX IMVI 16.6 µM | RPMI-8226 2.67 µM | MOLT-4 3.86 µM | HOP-92 22.3 µM | SN12C 10.2 µM | UACC-257 13.9 µM | Hs-578T 27.9 µM | MCF7 12.6 µM | UO-31 6.05 µM

CCC(=O)/C=C/c1ccccc1
inactive: PC-3 > 100 µM | TK-10 > 100 µM | ACHN 79.1 µM | HCT-116 31.3 µM | OVCAR-3 67.6 µM | Malme-3M > 100 µM | RXF 393 73.3 µM | SW-620 32.5 µM | HOP-62 > 100 µM | NCI-H23 47.4 µM | LOX IMVI 22.8 µM | RPMI-8226 54.3 µM | MOLT-4 26 µM | HOP-92 > 100 µM | SN12C 43.2 µM | UACC-257 72.6 µM | Hs-578T 21.8 µM | MCF7 31.7 µM | UO-31 76.6 µM

COC(=O)c1ccc(C)cc1/C=C1\Cc2ccc(C)cc2C1=O
inactive: PC-3 17.9 µM | TK-10 21.1 µM | ACHN 30.8 µM | HCT-116 11.1 µM | OVCAR-3 6.52 µM | Malme-3M 10.2 µM | RXF 393 14.7 µM | SW-620 19.5 µM | HOP-62 15.5 µM | NCI-H23 23.9 µM | LOX IMVI 12.9 µM | RPMI-8226 11.8 µM | MOLT-4 13.2 µM | HOP-92 15.5 µM | SN12C 16.7 µM | UACC-257 22.6 µM | Hs-578T 23.1 µM | MCF7 11.2 µM | UO-31 11 µM

c1ccc2c(c1)-c1ccccc1C2N1CC2CCC(CC2)C1
inactive: PC-3 27.6 µM | TK-10 37.4 µM | ACHN 23 µM | HCT-116 20.7 µM | OVCAR-3 20.4 µM | Malme-3M 10.1 µM | RXF 393 17.8 µM | SW-620 22.1 µM | HOP-62 25.2 µM | NCI-H23 17.3 µM | LOX IMVI 18.7 µM | RPMI-8226 20.4 µM | MOLT-4 12.3 µM | HOP-92 17.5 µM | SN12C 23.9 µM | UACC-257 20.6 µM | Hs-578T 3.37 µM | MCF7 17.5 µM | UO-31 28.8 µM

O=S(=O)(Nc1nc2ccccc2nc1Nc1ccc2ccccc2c1)c1ccccc1
inactive: PC-3 3.3 µM | TK-10 27.1 µM | ACHN 17.3 µM | HCT-116 7.8 µM | OVCAR-3 1.87 µM | Malme-3M 4.53 µM | RXF 393 20.4 µM | SW-620 7.38 µM | HOP-62 10.7 µM | NCI-H23 6.89 µM | LOX IMVI 17.8 µM | RPMI-8226 2.44 µM | MOLT-4 5.24 µM | HOP-92 5.06 µM | SN12C 10.4 µM | UACC-257 26.1 µM | Hs-578T 14.3 µM | MCF7 10.9 µM | UO-31 3.61 µM

Cc1cc(S(=O)(=O)Nc2nnc3c(Cl)cc(C(F)(F)F)cn23)c(S)cc1Cl
inactive: PC-3 69.3 µM | TK-10 > 100 µM | ACHN > 76.7 µM | HCT-116 34.8 µM | OVCAR-3 49.9 µM | Malme-3M 91 µM | RXF 393 > 100 µM | SW-620 > 68.4 µM | HOP-62 54.5 µM | NCI-H23 95.1 µM | LOX IMVI > 86.3 µM | RPMI-8226 > 100 µM | MOLT-4 75.9 µM | HOP-92 > 100 µM | SN12C > 96.6 µM | UACC-257 > 100 µM | Hs-578T > 64.9 µM | MCF7 > 61.1 µM | UO-31 30.2 µM
